Assay results from US5405760A, “Process for producing recombinant McrBC endonuclease and cleavage of methylated DNA” (New England Biolabs, Inc., priority 1992, dated 1995).

Assays:
[1] = Properties of the McrBC cleavage reaction (pH, ratio of components); assay type: biochemical
Text: (a) pH optimum: Activity is detectable when the pH of the reaction is lowered to about 5.8.
Higher or lower ratios reduce cleavage activity.

methylated DNA = experiment: McrBC cleavage of plasmid and phage DNA modified by methylases; assay type: biochemical
Text: The recognition sequence of the endonuclease of the present invention may be determined by mapping the locations of McrBC cleavage in various DNAs and comparing the DNA sequences of these regions for homology.
McrBC was also found to cleave M.AluI-methylated doublestranded pUC19 linearized at the AflIII site to generate fragments of 2.25 kb, 1.9 kb, 1.75 kb, 1.275 kb, 1.15 kb, 1.05 kb 0.94 kb, 0.25 kb and 0.27 kb, consistent with cleavage near nucleotides 250, 2300, 1350 and 325. McrBC also cleaves the following: M.HaeIII-methylated (GGmCC) pUC19 linearized at the AflIII site to generate fragments of 2.25 kb, 1.8 kb, 1.25 kb, 1.05 kb, 0.94 kb, 0.5 kb, and 0.45 kb, consistent with cleavage near nucleotide 1600, 2500, 350 and 550; M.HhaI-methylated (GmCGC) pBR322 near nucleotides 434-494 and near nucleotides 594-548; M.HhaI-methylated pUC19 linearized at the AflIII site to generate bands of 2.25 kb, 1.9 kb, 1.15 kb, and 0.94 kb, consistent with cleavage near nucleotides 0 or 60, 2350, 1500 and 620; M.MspI-modified (mCCGG) pUC19 linearized at the AflIII site to generate bands of 1.6 kb, 1.5 kb, 1.0 kb and 0.9 kb, consistent with cleavage near nucleotides 1500 and 1600. In addition, McrBC degrades the following: M.SssI modified (mCG) pBR322 and M.SssI modified pUC19 DNA; agarose-embedded cellular DNA of Escherichia coli carrying ppvuIIM1.9, which is M.PvuII modified ([…]).
pBR322 was modified by M.AluI by standard methods, cleaved with ClaI, and resuspended at 0.1 μg/μl. This substrate was recleaved with one of four restriction endonucleases that cleave once in pBR322 (AflIII, NdeI, ScaI, or SspI). These reactions (0.4 μg DNA in each, cleaved in a volume of 20 μl with the appropriate buffer supplied by New England Biolabs) were phenol extracted, precipitated by addition of ethanol in the presence of salt, and resuspended in dH2 O. Half of each reaction (0.2 μg) was digested with McrBC (1 μl each of McrBL and McrC; McrBL was similar to McrBL fraction iii of EXAMPLE III; McrC was similar to McrC fraction ii of EXAMPLE III). Reactions were loaded onto an agarose gel, with size standards (pBR322 digested with BstNI; NEB #301-1) and the sizes of the various fragments determined from a log-linear plot of cm migration (from a Polaroid photograph) versus known size of size standards. Sizes of fragments larger than the largest size standard were estimated by extrapolation and are indicated by "~". Sizes were lane 1, size standard: 1857, 1060, 929, 383, 121 bp; lane 2, AflIII+McrBC: >4 kb (faint, partial digest product), ~2.5, ~2.2, 1.7, 0.7 kb; lane 3, AflIII: ~2.6, ~2.1 (expected sizes 2.449, 1.912); lane 4, NdeI+McrBC: ~ 2.2, ~2.1, 1.8, 0.4 kb; lane 5, NdeI: ~2.5, ~2.2 kb (expected sizes 2.272, 2.089); lane 6, McrBC: ~2.2, 1.7, 0.93, 0.66, 0.48 kb; lane 7, ScaI: ~3.7, 0.54 (expected sizes 3.822, 0.541); lane 8, ScaI+McrBC: ~2.1, ~1.9, 1.1, 0.66, 0.60, 0.54 kb; lane 9, SspI: ~3.7, 0.28 kb (expected sizes 4.146, 0.215); lane 10, SspI+McrBC: ~2.2, 1.35, 0.66, 0.56 kb.
DNA used was pUC19 linearized at the AflIII site, obtained by standard procedures, and then methylated (0.8 μg) in a reaction containing 8 μl 10 X buffer (for M.AluI, M.HhaI, and M.HpaII this was 10XM.FnuDII buffer: 500 mM Tris[Cl] pH 7.5, 100 mM EDTA, 50 mM β-mercaptoethanol;for M.HaeIII, 500 mM Tris [Cl] pH 8.5; 500 mM NaCl, 10 mM dithiothreitol; for M.MspI, 500 mM Tris, pH 7.5, 500 mM NaCl, 50 mM β-mercaptoethanol; for M.SssI, 500 mM Tris Cl, pH 8.0, 500 mM NaCl, 100 mM EDTA), 8 μl S-adenosylmethionine (32 mM in 5 mM H2 SO4, 10% ethanol) and 4 μl methylase (M.AluI, 5 units/μl; M.HaeIII, 5 units/μl; M.HhaI, 25 units/μl; M.HpaII, 1-5 units/μl,M.MspI, 5 units/μl, M.SssI, 2 units/μl) in a total volume of 82 μl. Methylation reactions were incubated 90 minutes at 37° C., then heat-killed by incubation for 15 minutes at 67°-70° C. These substrates were then distributed to 6 series of 7 tubes for McrBC titration. […]

[2] = test system: DNA Escherichia coli W3110(ppvuIIM1.9); experiment: McrBC digestion of agarose-embedded M.PvuII-modified cellular DNA; assay type: biochemical
Protocol: (§1) Accordingly, the DNA Escherichia coli W3110(ppvuIIM1.9), which is modified in the sequence CAGCTG at the N^4 position of the central cytosine to generate the sequence CAGm4CTG, was treated with. McrBC in the presence of GTP following embedding of the cultured cells in agarose and subsequent lysis in situ to release the DNA, by standard procedures for in situ digestion. DNA carrying this modification was cleaved into many fragments of sizes smaller than 50 kb. From this evidence it was concluded that McrBC recognizes sequences containing N^4 C. In addition, DNA from bacteriophages T4αgt βgt dam^h dam1 and T6αgt, containing 5-hydroxymethylcytosine in place of cytosine and devoid of N^6 -methyladenine, was first treated with EcoRI or SspI and then treated with McrBC in the presence of GTP. Both of these DNAs were cleaved to produce many fragments smaller than 700 bp. From this evidence it was concluded that McrBC recognizes sequences containing hm5C as well m5C and N^4 -methylcytosine.

[3] = test system: DNA from bacteriophages T4αgt βgt dam^h dam1 and T6αgt; experiment: McrBC cleavage of 5-hydroxymethylcytosine-containing phage DNA; assay type: biochemical, bacteriophages T4 and T6; conditions: hmC DNA first treated with EcoRI or SspI, then McrBC with GTP
Protocol: as §1

Q: What does the source list for “McrBC: DNA endonuclease obtainable from Escherichia coli; components McrBL and McrC, substantially free of McrBS”?
A: pH to which the reaction can be lowered with activity detectable [1]: about 5.8; degradation of substrate DNA (methylated DNA; Dcm-modified (CmCWGG) pBR322, pUC19 or bacteriophage lambda DNA): does not degrade; cleavage of substrate DNA (methylated DNA; M.AluI-methylated pUC19 linearized at the AflIII site): cleave; cleavage of substrate DNA (methylated DNA; M.HaeIII-methylated (GGmCC) pUC19 linearized at the AflIII site): cleaves; cleavage of substrate DNA (methylated DNA; M.HhaI-methylated (GmCGC) pBR322): cleaves; cleavage of substrate DNA (methylated DNA; M.HhaI-methylated pUC19 linearized at the AflIII site): cleaves; degradation of substrate DNA (methylated DNA; M.HpaII-modified (Cm5CGG) pBR322, pUC19 or bacteriophage lambda DNA): does not degrade; cleavage of substrate DNA (methylated DNA; M.MspI-modified (mCCGG) pUC19 linearized at the AflIII site): cleaves; degradation of substrate DNA (methylated DNA; M.SssI modified (mCG) pBR322 and pUC19): degrades; degradation of substrate DNA (methylated DNA; pBR322, pUC19 or bacteriophage lambda modified by both Dcm and M.HpaII): does not degrade; cleavage of substrate DNA (methylated DNA; pBR322 DNA methylated by M.AluI (AGm5CT)): cleave; size of fragments produced by cleavage ([2]; CAGm4CTG-modified DNA, in the presence of GTP, in situ digestion): smaller than 50 kb; degradation of substrate DNA ([2]; agarose-embedded cellular DNA of Escherichia coli carrying ppvuIIM1.9, M.PvuII modified (GAm4CGTC)): degrades; size of fragments produced by cleavage [3]: smaller than 700 bp
